Assay results: ChEMBL document CHEMBL5724696, “Autophagy assay results for EUbOPEN Chemogenomics Library” (2024)

What was measured:
U2OS [1] = test: (§1) Here: values are normalized to the positive (DMSO; basel flux = defined as 100% suppression) and negative (250nM Torin1; mTOR inhibitor; maximal inducer of autophagy defined as 0% suppression) control compounds and represented as % of ER-phagy suppression. […] The impact of autophagy induction on cells is complex and depends on the affected target. […] Of note, treatment concentrations may be sub-optimal for specific compounds, leading to false negative annotations.; type: functional, Homo sapiens; conditions: Compound Concentration 1 uM, Culturing Media DMEM, 1 % Penicillin/Streptomycin, 10% Fetal bovin serum Add-On: blasticidin, Screening Media Control DMEM, 10% Fetal bovin serum Add-On: 1 µg/ml Doxycyclin, Screening Media Samples DMEM, 10% Fetal bovin serum Add-On: 1 µg/ml Doxycyclin 250nM Torin1
U2OS [2] = test: as §1; type: functional, Homo sapiens; conditions: Compound Concentration 1 uM, Culturing Media DMEM, 1 % Penicillin/Streptomycin, 10% Fetal bovin serum Add-On: blasticidin, Screening Media Control DMEM, 10% Fetal bovin serum Add-On: 1 µg/ml Doxycyclin, Screening Media Samples DMEM, 10% Fetal bovin serum Add-On: 1 µg/ml Doxycyclin 250nM Torin1; remark: listed apart in the source

Row | Compound | ER-phagy suppression (U2OS [1]; Timepoint 12 hours) [%] | ER-phagy suppression (U2OS [1]; Timepoint 24 hours) [%] | ER-phagy suppression (U2OS [1]; Timepoint 36 hours) [%] | ER-phagy suppression (U2OS [1]; Timepoint 54 hours) [%] | ER-phagy suppression (U2OS [2]; Timepoint 12 hours) [%] | ER-phagy suppression (U2OS [2]; Timepoint 24 hours) [%] | ER-phagy suppression (U2OS [2]; Timepoint 36 hours) [%] | ER-phagy suppression (U2OS [2]; Timepoint 60 hours) [%]
1 | CCCCNc1ncc(-c2ccc(CN3CCOCC3)cn2)c(N[C@H]2CC[C@H](O)CC2)n1 | -5.509 | -21.7145 | -31.345 | -19.8135 | -8.957 | -7.3145 | 4.583 | 12.8118
2 | O=C(NCc1cccc(O)c1)Nc1nc(-c2ccncc2)cs1 | -63.2417 | -37.1145 | 6.149 | 46.7933 | 38.3546 | 42.4931 | 43.3897 | 45.9293
3 | COc1ccccc1-c1cc(Nc2cccc(CS(N)(=O)=O)c2)ncn1 | -2.879 | 2.7876 | 9.9584 | 17.8632 | 64.2077 | 50.2137 | 56.273 | 39.1119
4 | Cc1ccc(C(=O)Nc2cccc(C(F)(F)F)c2)cc1Nc1nc(-c2cccnc2)nc2c1cnn2C | 20.046 | 2.016 | -6.3 | -2.2204 | 26.4951 | 22.3835 | 22.4378 | 22.9955
5 | CC1=C(C(=O)Nc2cc3cn[nH]c3cc2F)C(c2ccc(C(F)(F)F)cc2)CC(=O)N1 (stereo not drawn) | -59.3717 | -37.062 | 5.409 | 47.7199 | -7.959 | -2.49 | 15.1812 | 22.9185
6 | CCOc1cn(-c2ccc(F)cc2C)nc1C(=O)Nc1ccc(Oc2ccnc3cc(OC)c(OC)cc23)c(F)c1 | 8.613 | -11.0646 | -14.9155 | -19.0742 | 7.441 | -3.201 | 13.658 | 1.882
7 | Cc1c(C(=O)Nc2ccc(Oc3ccnc4[nH]cc(-c5ccccc5)c34)c(F)c2)c(=O)n(-c2ccc(F)cc2)n1C | 3.929 | -12.4432 | -17.5101 | -17.0737 | 11.6236 | -15.4691 | -3.07 | -1.46
8 | Cl.Cl.NC1(c2ccc(-c3nc4ccn5c(=O)[nH]nc5c4cc3-c3ccccc3)cc2)CCC1 | 6.566 | 12.3552 | 31.5322 | 46.784 | 41.5267 | 48.6663 | 54.9602 | 60.1398
9 | Cl.Cl.Nc1nccc(-c2c(-c3ccc(F)cc3)ncn2C2CCCCC2)n1 | 12.007 | 14.1245 | 19.9643 | 25.2011 |  |  |  | 
10 | Cl.NC(=O)c1cnc(N[C@@H]2CCCC[C@@H]2N)nc1Nc1cccc(-n2nccn2)c1 | 27.5492 | 18.4362 | 21.4313 | 34.0409 | 9.977 | 25.4122 | 28.6706 | 31.7231
11 | COc1cc(C2c3cc4c(cc3[C@H](O)[C@H]3COC(=O)[C@@H]23)OCO4)cc(OC)c1OC (stereo partly drawn) | 19.9758 | 6.76 | 5.125 | 8.089 | 13.7164 | -2.596 | 7.675 | 9.356
12 | CCC(=O)N1CCN(c2ccc(-n3c(=O)ccc4cnc5ccc(-c6cnc7ccccc7c6)cc5c43)cc2C(F)(F)F)CC1 [TORIN1] | 3.915 | -7.7479 | -6.712 | -3.9465 |  |  |  | 
